Tested on: late differentiated cultured human keratinocytes (LDKs)
Assay: Ceramide growth test in cultured human keratinocytes (LC-ESI-MS/MS quantification of ceramide species)
Type: cell-based
Procedure: Experiments were conducted using undifferentiated and late differentiated cultured human keratinocytes (KCs). Human keratinocytes were cultured in a serum-free KC growth medium containing 0.07 mM calcium, and collected to be undifferentiated cells when KCs occupied up to about 60% to 70% of the total area of the culture petri dish (about 60% to 70% confluence). KCs were cultured in a serum-free KC growth medium containing 0.07 mM of calcium, and the medium was replaced with DMEM containing 10% fetal bovine serum containing 1.2 mM of calcium, 10 μg/mL insulin, 0.4 μg/mL hydrocortisone, and 50 μg/mL of vitamin C and Ham's F-12 (2:1, v/v) when KCs occupied up to about 70% to 80% of the total area of the culture petri dish (about 70% to 80% confluence), followed by culturing for 8 days. Next, cells cultured for 3 days in a DMEM medium containing 10% fetal bovine serum containing 1.2 mM of calcium, 10 μg/mL insulin, 0.4 μg/mL hydrocortisone, and 50 μg/mL of vitamin C were used as late differentiated cultured human keratinocytes (LDKs).
From the second day of culture to the fourth, sixth, eighth, ninth, and tenth days, the ceramide preparation (I % ceramide NDS solution) prepared in Example 1 was diluted with a medium, filtered with a filter paper having a pore size of 0.45 μm, and 15.9 μL, 79.6 μL, and 397.7 μL (=10 μM, 50 μM, 250 μM) thereof were added, separately. In addition, 79.6 μL of a Blk solution not containing ceramide prepared in Comparative Example 1 was added, followed by culturing.
100 μg of each of the culture solutions prepared above and 100 μmol of an internal standard substance mixture (C17 (carbon number 17)-ceramide NS=N-octadecanoylamino-C17 sphingosine, C17-sphingosine, C17-dihydrosphingosine) were added to a mixed solution of a 0.1 N HCl aqueous solution: chloroform: methanol (volume ratio 1:2:1) and stirred, and then the organic phase of the lower layer was dried in vacuo, and the extraction drying operation was repeated twice. The obtained residue was dissolved in 200 μl of a methanol/acetonitrile equivalent mixture, and analyzed by the following liquid chromatography tandem mass spectrometry (LC-ESI-MS/MS) system (API 3200 QTRAP mass, ABCIEX). […]
10 μL of the extracted sample was analyzed by HPLC (HTS HPLC system manufactured by Shiseido Co., Ltd.) with a reverse phase KINTEX C18 column (2.1×50 mm, ID=2.6 μm). The column was previously equilibrated with a solvent A (MeOH: 0.05% formic acid aqueous solution: 80:20), the lipid was dissolved in a solvent B(2-propanol:0.05% formic acid methanol solution: 99:1), and a mass spectrum was detected in a positive mode by electrospray ionization with a gradient applied at a flow rate of 0.3 ml/min. […]

## CCCCCCCCCCCCCCCCCC(=O)N[C@@H](CO)[C@H](O)CCCCCCCCCCCCCCC [ceramide NDS, (2S,3R)-2-octadecanoylaminooctadecane-1,3-diol]
Example 1 preparation added at 10 μM, 50 μM, 250 μM, 10 days culture, p<0.01 vs LDK without ceramide NDS, FIG. 4
  ceramide NSs (acyl chain length 14 to 26) amount: significantly increased
Example 1 preparation added at 10 μM, 50 μM, 250 μM, 10 days culture, p<0.01 vs LDK without ceramide NDS, FIG. 5
  ceramide NDSs (different acyl chain lengths of 14 to 26) amount: significantly increased
Example 1 preparation added at 10 μM, 50 μM, 250 μM, 10 days culture, p<0.01 vs LDKs without ceramide NDS, FIG. 3
  ceramide EOSs (ω-hydroxy acid amide bond of 30 and 32 carbon atoms, esterified with linoleic acid at ω-position) amount: significantly increased
Ceramide preparation added to keratinocyte culture
  growth of various ceramide species: are grown

— patent US20240197610A1, “CERAMIDE GROWTH PROMOTING AGENT” (TAKASAGO INTERNATIONAL CORPORATION, priority 2020, published 2024)
